Tests used:
[1] = Lipophilicity, log D of compound at pH 7.4; format: physicochemical; details: buffer
[2] = biological target: Transient receptor potential cation channel subfamily A member 1 (Homo sapiens, UniProt O75762); test: Inhibition of human TRPA1
[3] = Kinetic solubility of compound; format: physicochemical; details: read-out: Kinetic_solubility
[4] = Plasma protein binding in human; format: ADME, cell-free; details: read-out: PPB (converted)
[5] = Permeability across MDCK cells; format: ADME, cell-based, Canis lupus familiaris; details: dog, read-out: permeability
[6] = biological target: Transient receptor potential cation channel subfamily A member 1 (Rattus norvegicus, UniProt Q6RI86); test: Inhibition of rat TRPA1
Transient receptor potential cation channel subfamily A member 1 (Rattus norvegicus, UniProt Q6RI86), sequence (Q6RI86 whole entry): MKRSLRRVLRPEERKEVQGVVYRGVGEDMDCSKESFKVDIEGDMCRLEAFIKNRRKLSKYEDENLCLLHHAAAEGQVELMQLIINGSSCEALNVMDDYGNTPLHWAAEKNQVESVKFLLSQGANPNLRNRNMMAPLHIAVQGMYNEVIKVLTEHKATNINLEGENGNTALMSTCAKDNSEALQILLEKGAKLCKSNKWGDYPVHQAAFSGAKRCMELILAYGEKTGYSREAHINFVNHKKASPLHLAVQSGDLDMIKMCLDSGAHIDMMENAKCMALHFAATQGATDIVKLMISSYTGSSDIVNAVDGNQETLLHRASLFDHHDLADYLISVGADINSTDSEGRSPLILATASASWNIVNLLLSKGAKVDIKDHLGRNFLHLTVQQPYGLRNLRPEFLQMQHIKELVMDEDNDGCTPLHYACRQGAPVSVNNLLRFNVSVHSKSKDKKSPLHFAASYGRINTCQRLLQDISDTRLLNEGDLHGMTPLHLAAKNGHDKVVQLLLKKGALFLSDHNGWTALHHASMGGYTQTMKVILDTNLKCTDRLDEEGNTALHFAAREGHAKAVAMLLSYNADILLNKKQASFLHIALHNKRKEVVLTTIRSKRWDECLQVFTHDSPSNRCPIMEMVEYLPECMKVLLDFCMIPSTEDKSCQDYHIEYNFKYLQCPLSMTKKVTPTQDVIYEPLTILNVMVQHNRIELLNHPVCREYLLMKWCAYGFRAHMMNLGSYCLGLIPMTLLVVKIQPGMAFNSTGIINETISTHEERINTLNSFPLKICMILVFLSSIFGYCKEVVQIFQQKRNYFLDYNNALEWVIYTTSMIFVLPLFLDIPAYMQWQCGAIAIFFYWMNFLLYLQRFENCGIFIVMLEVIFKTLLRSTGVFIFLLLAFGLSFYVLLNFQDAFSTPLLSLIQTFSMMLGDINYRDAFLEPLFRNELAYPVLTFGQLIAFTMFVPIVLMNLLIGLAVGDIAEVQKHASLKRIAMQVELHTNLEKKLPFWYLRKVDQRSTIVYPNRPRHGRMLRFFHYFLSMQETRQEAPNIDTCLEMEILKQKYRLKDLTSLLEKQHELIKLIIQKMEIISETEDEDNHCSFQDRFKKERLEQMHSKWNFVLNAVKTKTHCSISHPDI

Transient receptor potential cation channel subfamily A member 1 (Homo sapiens, UniProt O75762), sequence (O75762 whole entry): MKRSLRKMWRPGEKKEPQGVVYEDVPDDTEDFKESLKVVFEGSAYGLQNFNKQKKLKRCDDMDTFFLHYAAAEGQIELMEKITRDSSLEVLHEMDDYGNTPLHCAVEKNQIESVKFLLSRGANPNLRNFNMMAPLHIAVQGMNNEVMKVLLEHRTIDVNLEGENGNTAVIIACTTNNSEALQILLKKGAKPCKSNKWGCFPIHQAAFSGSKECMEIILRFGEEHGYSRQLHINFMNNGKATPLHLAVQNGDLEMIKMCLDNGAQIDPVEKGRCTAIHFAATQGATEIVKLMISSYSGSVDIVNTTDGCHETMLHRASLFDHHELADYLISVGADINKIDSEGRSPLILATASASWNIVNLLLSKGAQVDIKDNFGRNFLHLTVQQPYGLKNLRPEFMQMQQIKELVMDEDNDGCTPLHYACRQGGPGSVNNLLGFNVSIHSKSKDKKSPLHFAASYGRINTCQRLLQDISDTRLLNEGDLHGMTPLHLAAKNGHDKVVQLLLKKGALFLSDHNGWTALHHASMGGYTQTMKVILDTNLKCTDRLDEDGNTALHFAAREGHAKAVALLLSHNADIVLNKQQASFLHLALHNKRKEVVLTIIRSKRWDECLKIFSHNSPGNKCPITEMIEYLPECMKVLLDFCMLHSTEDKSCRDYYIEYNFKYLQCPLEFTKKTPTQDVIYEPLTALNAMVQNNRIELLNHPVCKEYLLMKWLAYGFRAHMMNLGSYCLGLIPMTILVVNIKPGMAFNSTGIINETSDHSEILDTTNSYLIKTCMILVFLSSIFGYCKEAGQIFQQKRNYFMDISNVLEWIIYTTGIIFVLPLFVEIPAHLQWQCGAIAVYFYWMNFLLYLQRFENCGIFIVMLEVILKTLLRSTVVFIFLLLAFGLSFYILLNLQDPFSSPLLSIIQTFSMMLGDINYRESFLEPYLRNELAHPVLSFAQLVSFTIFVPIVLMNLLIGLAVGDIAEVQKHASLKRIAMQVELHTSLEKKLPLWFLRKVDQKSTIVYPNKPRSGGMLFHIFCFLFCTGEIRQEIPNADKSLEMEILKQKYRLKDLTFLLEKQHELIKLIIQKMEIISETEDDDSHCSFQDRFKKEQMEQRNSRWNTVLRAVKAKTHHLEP

| SMILES | logD [1] | IC50 [2] | solubility kinetic [3] | fraction unbound [4] | Papp [5] | IC50 [6] |
| --- | --- | --- | --- | --- | --- | --- |
| Cc1cc(CN2[C@H](CO)CC[C@@H]2c2ccc(F)cc2)cc(C)c1F | 4 | 6700 nM |  |  |  |  |
| CNC[C@@H]1CC[C@H](c2ccc(F)cc2)N1S(=O)(=O)c1cc(C)c(F)c(C)c1 | 2.7 | > 20000 nM |  |  |  |  |
| Cc1cc(S(=O)(=O)N2[C@H](CNCC(F)(F)F)CC[C@@H]2c2ccc(F)cc2)cc(C)c1F | 4.3 | > 20000 nM |  |  |  |  |
| Cc1cc(C(=O)N2[C@H](CO)CC[C@@H]2c2ccc(F)cc2)cc(C)c1F | 3.1 | > 20000 nM |  |  |  |  |
| O=S(=O)(c1cccnc1)N1[C@H](CO)CC[C@@H]1c1ccc(F)cc1 | 1.1 | > 20000 nM |  |  |  |  |
| O=S(=O)(c1ccc(F)cn1)N1[C@H](CO)CC[C@@H]1c1ccc(F)cc1 | 2 | > 20000 nM |  |  |  |  |
| Cc1cc(S(=O)(=O)N2[C@H](CN(C)C)CC[C@@H]2c2ccc(F)cc2)cc(C)c1F | 3.7 | > 18000 nM |  |  |  |  |
| O=S(=O)(c1ccccc1)N1[C@H](CO)CC[C@@H]1c1ccc(F)cc1 | 2.2 | > 19000 nM |  |  |  |  |
| O=S(=O)(c1ccc(F)cc1)N1CCC[C@@H]1c1ccc(F)cc1 | 3.2 | 6600 nM |  |  |  |  |

These reach a lower IC50 [2]. Values come first.

| logD [1] | IC50 [2] | solubility kinetic [3] | fraction unbound [4] | Papp [5] | IC50 [6] | SMILES |
| --- | --- | --- | --- | --- | --- | --- |
| 2.6 | 380 nM |  |  |  |  | Cc1cc(S(=O)(=O)N2C[C@H](F)C[C@@H]2c2ccc(F)cc2)cc(C)c1F |
| 4.6 | 350 nM |  |  |  |  | O=S(=O)(c1cc(Cl)c(F)c(Cl)c1)N1CCC[C@@H]1c1ccc(F)cc1 |
| 3.2 | 290 nM |  |  |  |  | Cc1cc(C)cc(S(=O)(=O)N2[C@H](CO)CC[C@@H]2c2ccc(F)cc2)c1 |
| 3.9 | 270 nM |  |  |  |  | COC[C@@H]1CC[C@H](c2ccc(F)cc2)N1S(=O)(=O)c1cc(C)c(F)c(C)c1 |
| 2.8 | 190 nM |  |  |  |  | Cc1cc(S(=O)(=O)N2[C@H](CO)CC[C@@H]2c2ccc(F)cc2)ccc1F |
| 3.6 | 130 nM |  |  |  |  | Cc1cc(S(=O)(=O)N2[C@H](CO)CC[C@@H]2c2ccc(F)cc2)cc(Cl)c1F |
| 3.8 | 110 nM | < 1 µM | 0.006 | 5.7 ×10⁻⁶ cm/s | 7.3 µM | O=S(=O)(c1cc(Cl)c(F)c(Cl)c1)N1[C@H](CO)CC[C@@H]1c1ccc(F)cc1 |
| 4.4 | 110 nM |  |  |  |  | Cc1cc(S(=O)(=O)N2CCC[C@@H]2c2ccc(F)cc2)cc(C)c1F |
| 3.3 | 63 nM |  |  |  |  | Cc1cc(S(=O)(=O)N2[C@H](CO)CC[C@@H]2c2ccc(F)cc2)cc(C)c1F |
| 4.2 | 23 nM |  |  |  |  | Cc1cc(S(=O)(=O)N2CC(F)(F)C[C@@H]2c2ccc(F)cc2)cc(C)c1F |
| 3.9 | 20 nM |  |  |  |  | Cc1cc(S(=O)(=O)N2CC[C@@H](F)[C@@H]2c2ccc(F)cc2)cc(C)c1F |
